How the values were obtained:
[1] = tested on: PIT-dependent promoters PPIR, PPIR2, PPIR3; assay: SEAP expression from modified PI-responsive promoters (PPIR, PPIR2, PPIR3); type: cell-based, Streptomyces coelicolor
Excerpt: The naturally occurring Pptr sequence contains only three distinct Pip binding sites which could accommodate PIT. In order to enhance maximal expression from streptogramin-responsive system, we constructed PI-responsive promoters with two (PPIR2) and three (PPIR3) ptr binding motifs with a total of 6 and 9 Pip binding sites, respectively.
Both DNA fragments were digested with AatII and Sse8387I (corresponding restriction sites are shown in bold) and ligated to the corresponding sites of pMF172 (PPIR -SEAP; AatII/Sse8387I) thereby replacing the single Pip binding sequence (Pptr of S. pristinaespiralis; Salah-Bey et al., 1995; Salah-Bey and Thompson, 1995) to result in plasmids pMF198 (PPIR2 -SEAP) and pMF199 (PPIR3 -SEAP). […]

PIT/PPIR system = biological target: T1, PIT/PPIR system (Streptomyces coelicolor, UniProt Q9ADN3); assay: SEAP reporter assay, CHO-K1 cotransfected with pMF156 (PIT) and pMF172 (PPIR-SEAP); type: cell-based
T1 construct: pMF156/pTWIN in CHO cells, PPIR-SEAP or GFP reporter
T1 sequence (Q9ADN3 1-252): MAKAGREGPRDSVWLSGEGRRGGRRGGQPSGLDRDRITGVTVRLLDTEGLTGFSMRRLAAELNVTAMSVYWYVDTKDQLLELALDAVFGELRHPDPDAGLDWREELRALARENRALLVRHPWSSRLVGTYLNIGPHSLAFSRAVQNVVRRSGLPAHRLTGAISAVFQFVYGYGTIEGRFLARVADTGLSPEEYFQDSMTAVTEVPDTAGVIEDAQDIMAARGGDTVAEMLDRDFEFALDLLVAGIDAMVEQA
Method: PIT, the fusion protein of Pip and the VP16 C-terminal transactivation domain of Herpes simplex (Triezenberg et al., 1988, Genes Dev. 2, 718-729) was constructed by amplifying the S. coelicolor Pip from pGemT::Epip4 with oligos:
Chinese hamster ovary cells (CHO-K1, ATCC: CCL 61), Baby hamster kidney cells (BHK-21, ATCC: CRL-8544), and HeLa cells (ATCC: CRL-7923) as well as stable cell lines CHO-PIT1, CHO-PIT2, CHO-TWIN195, CHO-TWIN1108 and CHO-PIT1-SEAP were cultured as described before (Fussenegger et al., 1998, Nat. Biotechnol. 16,468-472) in the presence of appropriate antibiotics: G418 400 μg/ml; zeocin 100 μg/ml. Optimized CaPO4 protocols were used for high efficiency transient transfection of all cell lines (id). Transient transfected cells were routinely analyzed after 48 h for GFP or SEAP expression using fluorescence microscopy and p-nitrophenolphosphate-based light absorbance timecourse, respectively, as described before (Fussenegger et al., 1998, Nat. Biotechnol. 16, 468-472; Berger et al., 1988, Gene 66, 1-10 b). For construction of stable CHO-PIT and CHO-TWIN cell lines, CHO-K1 was cotransfected either with pMF156 or pTWIN1 and pSV2neo carrying the G418 resistance gene. CHO-PIT1-SEAP was constructed by cotransfection of pMF172 and pZeoSV2 (Invitrogen). For assessment of dose-response characteristics of PPIR -regulated gene expression, CHO-PIT1-SEAP were cultured at cell densities of 150,000/ml for 48 at various PI concentrations. The mixed populations were cloned using FACS-mediated single-cell-sorting (FACStar^Plus; Beckton Dickinson). Gel retardation assay were performed as described (Salah-Bey et al., 1995, supra) using Pip purified from an overproducing strain of E. coli. Pip (0.02 pmol) was titrated with a range of antibiotic concentrations in a reaction volume of 20 μl. Protein solutions were pre-incubated at room temperature for 15 min. in the absence or presence of PI or its derivative quinupristin in a buffer containing 10 mM Tris (pH 7.8), 10 mM MgCl2, 300 mM NaCl, 2 mM DTT and 10% glycerol. An EcoRI-HindII PPTR fragment (0.02 pmol) containing three Pip binding sites (radiolabelled using α-^32 P)dATP was added and incubated for 15 min. To minimize nonspecific protein binding and increase protein stability, 2 μg of poly dIdC and 20 μg BSA were included in the incubation mix. Protein-DNA complexes were separated on 5% polyacrylamide,TBE gels and visualized by autoradiography.
Five different sources of pristinamycin were used: The two therapeutic forms Pyostacin™ and Synercid™, pristinamycin discs, and the single compounds pristinamycin I (PI) and pristinamycin II (PII). Pyostacin™ pills (500 mg) were ground in a mortar and solubilized in DMSO or water at a stock concentration of 50 mg/ml. Synercid™ (RP 59500; Lot Nr. CB06253) was provided by Aventis in injection-ready vials containing 500 mg lyophilized antibiotic which was reconstituted in 5 ml of 5% glucose solution and frozen at -20° C. Individual pristinamycin compounds PI and PII (identical to virginiamycin M1 (VM1); Sigma ref. V2753) were solubilized in DMSO at a concentration of 50 mg/ml and kept at -20° C. Antibiotic discs containing 15 μg pristinamycin or virginiamycin (bioMerieux, ref. 54552; bioMerieux, ref. 54612) were soaked in 1 ml cell culture medium at 4i C for up to 24 h. […] The concentration of individual streptogramin components was calculated based on their fixed 70:30 ratio (w/w; PII/VM1 /dalfopristin: PI/VS1 /quinupristin). […]

Chain of PIT-dependent promoters PPIR, PPIR2, PPIR3 (as listed by the source): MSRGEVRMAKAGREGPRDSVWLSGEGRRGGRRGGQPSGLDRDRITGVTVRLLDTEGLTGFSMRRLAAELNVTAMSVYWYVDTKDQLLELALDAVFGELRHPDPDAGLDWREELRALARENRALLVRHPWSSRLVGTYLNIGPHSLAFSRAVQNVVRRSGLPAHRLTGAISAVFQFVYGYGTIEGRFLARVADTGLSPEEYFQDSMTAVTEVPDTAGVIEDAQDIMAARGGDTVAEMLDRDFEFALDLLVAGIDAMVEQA

For pristinamycin I [PI], the “SEAP expression in the presence of PI” value ([1]; PPIR2 -SEAP (pMF198)) was 0.073 ± 0.004, the “SEAP expression in the presence of PI” value ([1]; PPIR2 -SEAP (pMF199) as printed) was 0.09 ± 0.008 and the “SEAP expression in the presence of PI” value ([1]; PPIR -SEAP (pMF172)) was 0.04 ± 0.019. For the same substance, the “SEAP readout (slope of the p-nitrophenolphosphate-based light absorbance time courses)” value (PIT/PPIR system; +PI (2 μg/ml), 48 hr post transfection, CHO + pMF156 + pMF172) was 0.03 ± 0.002, the “Downregulation of PIT/PPIR-mediated SEAP expression” value (PIT/PPIR system; CHO-K1, 2 μg/ml) was “effective downregulation” and the “SEAP Production (%)” value (PIT/PPIR system; inducer 2 μg/ml, assayed 48 hr later, no inducer = 100) was 7.90 ± 1.2%.
